Assay results as given in article PMC11856108, “Capsaicin (But Not Other Vanillins) Enhances Estrogen Binding to Its Receptor: Implications for Power Sports and Cancers” (Life, 2025).
Entries after “also recorded” stand apart in the source; their conditions may differ. Read-outs that look alike come from different tables or passages of the source.

Experiments:
Human HepG2 cells [1] = test system: Human HepG2 cells; design: method as in PMID 30987128; settings: cited from earlier work
[2] = design: method as in PMID 26247812; settings: DPPC mem-brane model; cited from earlier work
Mice: TRPV1+ vs. TRPV1- = test system: Mice: TRPV1+ vs. TRPV1-; design: method as in PMID 32400193; settings: cited from earlier work
Human (male) [3] = test system: Human (male); design: method as in PMID 17615999; settings: cited from earlier work
Mice [4] = test system: Mice; design: method as in PMID 23536811; settings: cited from earlier work
[5] = test system: Human nasopharyngeal carcinoma; design: method as in PMID 28644386; settings: cited from earlier work
Human [6] = test system: Human; design: method as in PMID 25621172; settings: cited from earlier work
Human (NSCLC cells) = test system: Human (NSCLC cells); design: method as in PMID 24926985; settings: cited from earlier work
[7] = molecular target: T1, Estrogen receptor alpha (ER alpha) recombinant protein (ESR1) (Homo sapiens, UniProt P03372); test: Binding to the estrogen receptor by ultraviolet spectroscopy
T1 sequence (P03372 1-595): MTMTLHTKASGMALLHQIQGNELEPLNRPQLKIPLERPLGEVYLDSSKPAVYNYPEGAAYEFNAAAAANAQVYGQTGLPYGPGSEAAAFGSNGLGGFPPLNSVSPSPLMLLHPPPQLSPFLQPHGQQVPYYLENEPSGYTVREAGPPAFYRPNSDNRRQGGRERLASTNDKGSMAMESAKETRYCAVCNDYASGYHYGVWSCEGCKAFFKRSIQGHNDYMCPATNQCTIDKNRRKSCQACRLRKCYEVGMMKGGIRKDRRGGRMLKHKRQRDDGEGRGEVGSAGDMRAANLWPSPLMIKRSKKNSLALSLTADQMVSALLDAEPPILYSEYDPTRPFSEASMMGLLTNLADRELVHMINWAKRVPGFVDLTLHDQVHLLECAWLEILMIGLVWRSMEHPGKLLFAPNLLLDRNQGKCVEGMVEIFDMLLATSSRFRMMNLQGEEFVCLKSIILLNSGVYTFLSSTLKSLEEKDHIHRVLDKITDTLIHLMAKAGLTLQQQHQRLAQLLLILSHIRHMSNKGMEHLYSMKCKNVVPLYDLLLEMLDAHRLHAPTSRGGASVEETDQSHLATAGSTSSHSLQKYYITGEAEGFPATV

Human, Mice = test system: Human, Mice; design: method as in PMID 29772784; settings: Both ***; cited from earlier work
Mice [8] = test system: Mice; design: method as in doi:10.32604/biocell.2023.028222; settings: cited from earlier work
Mice [9] = test system: Mice; design: method as in PMID 23958300; settings: cited from earlier work
[10] = test system: Human (prostate cancer cells); design: method as in PMID 19705615; settings: cited from earlier work
Human [11] = test system: Human; design: method as in PMID 30668390; settings: cited from earlier work
ESR1 = molecular target: T2, ESR1 (Homo sapiens, UniProt P03372); test: Competitive-binding ELISA of EST-HRP binding to the estrogen receptor; settings: for shift of the estradiol (EST-HRP) binding curve: maximal shift
T2 construct: purchased Invitrogen-Thermofisher
T2 sequence (P03372 1-595): T1 sequence (P03372 1-595)

Human HepG2 cells [12] = test system: Human HepG2 cells; design: method as in PMID 25621172; settings: cited from earlier work
Mice [13] = test system: Mice; design: method as in PMID 38700794; settings: cited from earlier work
insulin receptor (IR) = test: Effect on INS binding to its receptor by ultraviolet spectroscopy; settings: INS 1 µM with CAP 0.1-100 µM, or CAP 25 µM with INS 10 nM-10 µM
Protocol: [17, 19, 20, 21, 22, 23]. […] Because CAP binds to INS, it was possible that it might antagonize INS binding to its receptor. […] Two types of ultraviolet spectroscopy experiments were performed. In one, INS (1 µM) and the IR were kept constant and the concentration of CAP increased from 0.1 µM to 100 µM. In the other, the CAP (25 µM) and IR were kept constant and the concentration of INS increased from 10 nM to 10 µM. In neither experiment was any significant change in the INS binding curve observed.

Human (male) [14] = test system: Human (male); design: method as in PMID 8926537; settings: cited from earlier work

SMILES: COc1cc(CNC(=O)CCCC/C=C/C(C)C)ccc1O [Capsaicin, trans-8-methyl-N-vanillyl-6-nonenamide]
- Capsaicin Upregulates (Human HepG2 cells [1]): >Activation of AMPK pathway
- Downregulates or Inhibits (Human HepG2 cells [1]): > Lipogenesis > Inhibition of AKT/mTOR pathway
- Upregulates [2]: >Increases membrane fluidity
- Cancer-Related Effects (Mice: TRPV1+ vs. TRPV1-): >Chemoprevention
- Downregulates or Inhibits (Mice: TRPV1+ vs. TRPV1-): >Blocked metastatic burden >Mechanism unknown
- Capsaicin Upregulates (Human (male) [3]): >Sympathetic modulation (adrenal catecholamine secretion) and thermogenesis
- Capsaicin Upregulates (Mice [4]): >Ca^2+ ion release into the cell via TRPV-1 activation >Muscle actin–myosin interaction >Force generation >Intramuscular triglyceride consumption
- Cancer-Related Effects [5]: >Regulation of autophagic pathways
- Upregulates [5]: >Increases levels of LC3-II and Atg5 >Enhances p62 and Fap-1 degradation
- Cancer-Related Effects (Human [6]): >Induces apoptosis
- Downregulates or Inhibits (Human [6]): >Bax/Bcl2 pathway → decreased expression of Bcl-2 (prosurvival gene)
- Upregulates (Human [6]): >Bax/Bcl2 pathways → increased expression of Bax (apoptotic gene)
- Cancer-Related Effects (Human (NSCLC cells)): >Inhibition of tumor angiogenesis and metastasis
- Downregulates or Inhibits (Human (NSCLC cells)): >VEGF expression
- Upregulates (Human (NSCLC cells)): >Activates p53-SMAR1 positive feedback loop >Decreases endothelial cell migration and network reformation
- Kd [7]: 0.9 µM
- binding to the estrogen receptor (in words) ([7]; UV spectroscopy): bound to the estrogen receptor
- binding to the estrogen receptor (in words) ([7]; UV spectroscopy, listed as CAP): bind directly to the estrogen receptor
- Kd ([7]; read-out: Kd, ESR1 lower affinity site, UV spectroscopy): 10 µM
- Capsaicin Upregulates (Human, Mice): >INS sensitivity—TRPV-1 activation stimulated GLP-1 release * >Fatty acid oxidation—modulated via TRPV1 activation >INS secretion from pancreatic β-cells ***
- Downregulates or Inhibits (Human, Mice): > Inflammatory factors **
- Cancer-Related Effects (Mice [8]): >Attenuates testosterone-induced prostate growth
- Capsaicin Upregulates (Mice [9]): >Glucose uptake via AMPK activation and increasing p38 MAPK phosphorylation >Stimulation of ROS generation
- Cancer-Related Effects [10]: >Induces apoptosis
- Upregulates [10]: >Cleavage of procaspase-3 to caspase-3 >Interaction with caspase-1 >TRPV1-mediated Ca+ influx
- Cancer-Related Effects (Human [11]): >Inhibits cell proliferation
- Downregulates or Inhibits (Human [11]): >Cell cycle arrest in G0/G1 and G2/M phase >Suppresses ROS production
- Upregulates (Human [11]): >Increase in reduced glutathione and DPPH
- competition with estradiol for binding to ESR1 (ESR1): did not compete with estradiol for binding to ESR1
- effect on estradiol (EST-HRP) binding to the estrogen receptor (ESR1; listed as CAP): enhanced binding of estradiol to its receptor in a concentration-dependent manner; also recorded: increases binding of estradiol to its receptor
- shift of the estradiol (EST-HRP) binding curve (ESR1): approximately a half of a log unit
- shift of the estradiol (EST-HRP) binding curve (ESR1; listed as CAP): half-log leftward shift
- Cancer-Related Effects (Human HepG2 cells [12]): >Sensitizes human cancer cells to cytocidal effects of chemotherapeutic agents >Selectivity to kill cancer cells with minimal damage to normal cells
- Downregulates or Inhibits (Human HepG2 cells [12]): >MDR-1 pathway → downregulates MDR-1 transcription (improves sensitivity)
- Cancer-Related Effects (Mice [13]): >Ameliorated changes to the histological structure, prostate weight and prostate index (prostate/body weight ratio)
- Downregulates or Inhibits (Mice [13]): >TGF-β1/Smad signaling pathway → expression of E-cadherin, TGFBR2, TGF-β1 and p-Smad2/3 >IGF-1/AKT signaling pathway → expression of IGF-1, IGF-1R, p-AKT and RAGE >Androgen signaling pathway → expression of 5-αreductase type II, AR and PSA
- Upregulates (Mice [13]): >TGF-β1/Smad signaling pathway → expression of N-cadherin, vimentin, fibronectin >TRPV-1-mediated apoptosis
- effect on INS binding to its receptor (insulin receptor (IR)): no observable effect
- effect on INS binding to its receptor (insulin receptor (IR); listed as CAP): does not, apparently, alter INS binding to its receptor; also recorded: did not significantly affect INS binding to its receptor
- Capsaicin Upregulates (Human (male) [14]): >Fat metabolism through neuroadrenergic effects of TRPV-1 activation
